Assay results taken from article PMC8533211, “Computationally Assisted Lead Optimization of Novel Potent and Selective MAO-B Inhibitors” (Biomedicines, 2021).
“Also recorded” adds a separate entry of the source. Like-named read-outs stand apart in the source and are kept apart here.

Experiments:
[1] = system: MAO-B (rat liver mitochondrial fraction); parameters: method as in PMID 18372132; settings: cited from earlier work
[2] = system: MAO-A (rat liver mitochondrial fraction); parameters: method as in PMID 18372132; settings: chromogenic solution; cited from earlier work
[3] = system: MAO-A; parameters: method as in PMID 32869630; settings: chemiluminescent assay, MAO-Glo kit; cited from earlier work
[4] = system: MAO-B; parameters: method as in PMID 32869630; settings: chemiluminescent assay, MAO-Glo kit; cited from earlier work
[5] = system: human recombinant MAO A; settings: human recombinant; kynuramine; cited from earlier work
[6] = system: human recombinant MAO B; settings: cited from earlier work; for IC50: human recombinant, kynuramine
[7] = target: T1, human recombinant MAO-B (Homo sapiens, UniProt P27338); parameters: purchased BD Biosciences (Bedford, MA, USA); settings: cited from earlier work
T1 sequence (P27338 1-520): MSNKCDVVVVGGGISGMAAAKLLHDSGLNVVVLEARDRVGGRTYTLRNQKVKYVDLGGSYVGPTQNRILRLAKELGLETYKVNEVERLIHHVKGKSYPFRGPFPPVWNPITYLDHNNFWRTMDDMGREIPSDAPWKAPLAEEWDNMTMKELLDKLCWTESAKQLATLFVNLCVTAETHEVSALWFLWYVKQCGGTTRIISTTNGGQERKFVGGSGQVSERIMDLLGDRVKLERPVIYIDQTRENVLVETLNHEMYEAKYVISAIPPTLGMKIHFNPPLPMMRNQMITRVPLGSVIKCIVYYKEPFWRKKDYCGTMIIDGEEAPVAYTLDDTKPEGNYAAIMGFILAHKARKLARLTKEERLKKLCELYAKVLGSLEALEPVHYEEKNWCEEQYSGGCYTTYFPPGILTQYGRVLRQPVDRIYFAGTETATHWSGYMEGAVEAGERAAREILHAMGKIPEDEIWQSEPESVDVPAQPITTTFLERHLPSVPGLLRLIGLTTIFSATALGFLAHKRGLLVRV

[8] = target: T1, human recombinant MAO-B; assay: MAO-B inhibition kinetics, Lineweaver–Burk (Ki, type of inhibition); assay type: biochemical; parameters: purchased BD Biosciences (Bedford, MA, USA); settings: for Ki: kynuramine 1.90–500 μM, mean ± S.D. of triplicate experiments, read-out: Monoamine Oxidase B Ki
Procedure: (§1) The controls without inhibitor were also run simultaneously. Three sets of assays were performed at varying concentrations of the substrate for each experiment: one control without inhibitor and the others at two fixed concentrations of the inhibitor. The data were analyzed by double reciprocal Lineweaver–Burk plots to determine Ki (i.e., inhibition/binding affinity) values and the kinetic data, namely Km, Vmax, and Ki values, were computed by SigmaPlot 12 [9].
Modified flavonoids (1–4) c were evaluated against MAO-B at varying concentrations of kynuramine, a nonselective substrate, to investigate the nature of inhibition of the enzymes. Based on dose–concentration inhibition, three to five concentrations (below and above the concentration of IC50 values) were selected for the inhibition kinetics experiment.

[9] = target: T1, human recombinant MAO-B; assay: time-dependent inhibition of MAO-B; settings: read-out: MAO-B enzyme inhibition in time-dependent assay
Procedure: The controls, without inhibitors, were also run simultaneously. Activities of the enzyme were determined as described above, and the percentage of the remaining enzyme activity was plotted against the pre-incubation time to determine time-dependent inhibition.
The control enzyme without inhibitor was also run concurrently. For validation, the MAO- B standards were run simultaneously for the time-dependent assay.

[10] = target: T1, human recombinant MAO-B; assay: reversibility of binding by equilibrium dialysis of the enzyme–inhibitor complex; settings: for MAO-B enzyme activity recovered after dialysis: 1.5 µM inhibitor, dialyzed overnight at 4 °C, 25 mM buffer pH 7.4; for reversibility of binding/inhibition of MAO-B: equilibrium dialysis
Procedure: Recovery of the catalytic activity of the enzyme was determined by assay of the enzyme activity before and after equilibrium-dialysis. […] After 20 min of incubation at 37 °C, the reaction was stopped by chilling the tubes in the ice bath. All the samples were dialyzed against potassium phosphate buffer (25 mM; pH 7.4) at 4 °C for 14–18 h (with three buffer changes). The control enzyme (without inhibitor) was also run simultaneously using the same procedure and the activity of the enzyme was determined before and after the dialysis.
MAO-B enzyme was incubated with the highest concentration of the analogs for 20 min at 37 °C to allow for binding of the inhibitor with the enzyme and formation of the enzyme–inhibitor complex. Then, the mixtures of the enzyme–inhibitor complex were dialyzed overnight at 4 °C using 25 mM KHPO4 (pH 7.4) buffer. The enzyme activities were examined before and after dialysis.

[11] = target: T2, human recombinant MAO-A (Homo sapiens, UniProt P21397); assay: kynuramine oxidation deamination assay, MAO-A inhibition (IC50); assay type: biochemical; settings: kynuramine 80 μM, mean ± S.D. of triplicate
T2 construct: purchased BD Biosciences (Bedford, MA, USA)
T2 sequence (P21397 1-527): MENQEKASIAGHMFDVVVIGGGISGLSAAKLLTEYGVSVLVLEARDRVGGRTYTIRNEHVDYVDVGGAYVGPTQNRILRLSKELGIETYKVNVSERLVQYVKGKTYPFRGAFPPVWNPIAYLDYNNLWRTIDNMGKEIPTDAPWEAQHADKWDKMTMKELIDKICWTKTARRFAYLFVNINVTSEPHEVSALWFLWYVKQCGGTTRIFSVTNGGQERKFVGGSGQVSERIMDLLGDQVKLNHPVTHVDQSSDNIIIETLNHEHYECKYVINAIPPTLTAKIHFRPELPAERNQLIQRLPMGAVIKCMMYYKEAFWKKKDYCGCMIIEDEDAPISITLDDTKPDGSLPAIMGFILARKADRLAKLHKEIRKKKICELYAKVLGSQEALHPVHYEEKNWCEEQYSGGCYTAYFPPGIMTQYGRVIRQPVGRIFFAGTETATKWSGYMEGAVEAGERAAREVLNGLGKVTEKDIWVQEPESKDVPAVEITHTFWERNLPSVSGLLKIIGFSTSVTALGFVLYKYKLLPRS
Procedure: (§2) A fixed single concentration of kynuramine substrate and varying concentrations of the test inhibitor were used to determine the IC50 values. The kynuramine concentrations for MAO-A and -B were 80 μM and 50 μM, respectively. These concentrations of kynuramine were twice the apparent KM value for substrate binding. […] Enzymatic reactions were performed in 50 μL of the assay mixture containing 0.1 M potassium phosphate buffer, pH 7.4. […] Reactions were initiated by the addition of 12.50 μL of MAO-A (to 5 μg/mL) or -B (to 10 μg/mL). The plate was incubated for 20 min at 37 °C, and the enzymatic reaction was terminated by the addition of 18.8 μL of 2N NaOH. Formation of the enzyme product, 4-hydroxyquinoline, was measured fluorometrically using a SpectraMax M5 fluorescence plate reader (Molecular Devices, Sunnyvale, CA, USA) with excitation (320 nm) and emission (380 nm) wavelengths and the Soft Max Pro program. The inhibition effects of enzyme activity were calculated as percent of product formation compared to the corresponding control (enzyme–substrate reaction) without inhibitors. Controls included the assays where the enzyme or the substrate was added after terminating the reaction to determine the interference with the fluorescence measurements. The IC50 values for MAO-A and -B inhibition were calculated from the concentration-dependent inhibition curves using XLFit® software.

[12] = target: T1, human recombinant MAO-B; assay: kynuramine oxidation deamination assay, MAO-B inhibition (IC50); assay type: biochemical; parameters: purchased BD Biosciences (Bedford, MA, USA); settings: for Selectivity Index MAO-A/B: ratio of IC50 MAO-A / MAO-B; for IC50: recombinant human MAO-B, kynuramine 50 μM, mean ± S.D. of triplicate
Procedure: as §2, with “The kynuramine concentrations for MAO-A and -B were 80 μM and 50 μM, respectively.” left out

[13] = target: T3, Monoamine Oxidase A (Homo sapiens, UniProt P21397); assay: MAO-A inhibition kinetics (Ki, type of inhibition); assay type: biochemical
T3 sequence (P21397 1-527): T2 sequence (P21397 1-527)
Procedure: as §1

Structure (SMILES): O=C1C[C@@H](c2ccc(O)cc2)Oc2cc(O)cc(O)c21 [Naringenin]
- IC50 ([1]; chromogenic solution): 288000 ± 18000 nM
- Selectivity Index MAO-A/B [1]: 3.32
- IC50 [2]: 955000 ± 129000 nM

Structure (SMILES): O=c1cc(-c2ccc(O)c(O)c2)oc2cc(O)cc(O)c12 [Luteolin]
- IC50 [3]: 8570 ± 470 nM
- IC50 [4]: > 100000 nM

Structure (SMILES): COc1ccc(-c2cc(=O)c3c(O)cc(OC)cc3o2)cc1 [Acacetin 7-O-methyl ether]
- IC50 [5]: > 100000 nM
- Selectivity Index MAO-A/B [6]: >505.05
- selectivity index (SI) for MAO A/B [6]: > 505 fold
- IC50 [6]: 198 ± 1 nM
- Monoamine Oxidase B Type of Inhibition [7]: competitive/partially reversible

Structure (SMILES): CCCOc1ccc(-c2cc(=O)c3c(O)cc(OC)cc3o2)cc1 [Compound 1c, 5-Hydroxy-7-methoxy-2-(4-propoxyphenyl)-4H-chromen-4-one]
- Monoamine Oxidase B Type of Inhibition [8]: mixed/partially reversible
- Ki [8]: 43 ± 3.8 nM
- inhibition at 0.1 µM [9]: 70 to 80%
- MAO-B enzyme activity recovered after dialysis [10]: 30%
- reversibility of binding/inhibition of MAO-B [10]: partially reversible; also recorded: reversible inhibition
- reversibility of binding/inhibition of MAO-B ([10]; listed as O-propyl): reversible MAO-B inhibitors
- IC50 [11]: 48800 ± 2010 nM
- selectivity towards MAO-B compared with MAO-A [12]: 1478 fold
- Selectivity Index MAO-A/B [12]: 1478.2
- IC50 [12]: 33 ± 4.2 nM

Structure (SMILES): COc1cc(O)c2c(=O)cc(-c3ccc(OCC(C)C)cc3)oc2c1 [Compound 3c, 5-Hydroxy-2-(4-Isobutoxyphenyl)7-methoxy-4H-chromen-4-one]
- Monoamine Oxidase B Type of Inhibition [8]: mixed/irreversible
- Ki [8]: 37 ± 9.5 nM
- inhibition at 0.3 µM [9]: 70 to 80%
- reversibility of binding/inhibition of MAO-B [10]: irreversible MAO-B inhibitors
- IC50 [11]: > 100000 nM
- selectivity towards MAO-B compared with MAO-A [12]: > 3000 fold
- selectivity towards MAO-B compared with MAO-A ([12]; listed as O-isobutyl): > 3225 fold
- Selectivity Index MAO-A/B [12]: >3225.8
- IC50 [12]: 31 ± 7 nM

Structure (SMILES): COc1cc(O)c2c(=O)cc(-c3ccc(OC(C)C)cc3)oc2c1 [Compound 2c, 5-Hydroxy-2-(4-isopropoxyphenyl)-7-methoxy-4H-chromen-4-one]
- Monoamine Oxidase B Type of Inhibition [8]: mixed/reversible
- Ki [8]: 52 ± 3.1 nM
- inhibition at 0.3 µM [9]: 30 to 50%
- MAO-B enzyme activity recovered after dialysis [10]: 66%
- reversibility of binding/inhibition of MAO-B [10]: reversible inhibition
- reversibility of binding/inhibition of MAO-B ([10]; listed as O-isopropyl): reversible MAO-B inhibitors
- IC50 [11]: 30740 ± 23 nM
- selectivity towards MAO-B compared with MAO-A [12]: 1921 fold
- Selectivity Index MAO-A/B [12]: 1921.3
- IC50 [12]: 16 ± 7 nM

Structure (SMILES): COc1ccc(-c2cc(=O)c3c(O)cc(O)cc3o2)cc1 [Acacetin]
- IC50 [5]: 121 ± 1 nM
- Monoamine Oxidase B Type of Inhibition [8]: competitive/reversible
- IC50 [6]: 49 ± 0.7 nM
- Monoamine Oxidase A Type of Inhibition [13]: competitive/reversible
- Ki ([13]; mean ± S.D. of triplicate experiments): 30 ± 1.8 nM
- IC50 [11]: 105 ± 1.4 nM

Structure (SMILES): C#CCOc1ccc(-c2cc(=O)c3c(O)cc(OC)cc3o2)cc1 [Compound 4c, 5-Hydroxy-7-methoxy-2-(4-(prop-2-yn-1-yloxy)phenyl)-4H-chromen-4-one]
- Monoamine Oxidase B Type of Inhibition [8]: mixed/irreversible
- Ki [8]: 68 ± 7.1 nM
- inhibition at 0.4 µM [9]: 70 to 80%
- reversibility of binding/inhibition of MAO-B [10]: irreversible MAO-B inhibitors
- IC50 [11]: 62700 ± 5210 nM
- selectivity towards MAO-B compared with MAO-A [12]: 1279 fold
- Selectivity Index MAO-A/B [12]: 1279.6
- IC50 [12]: 49 ± 1.4 nM
